Non-standard residues stand in square brackets, D forms with d. Residues, ends and D or L forms follow the SMILES beside them.
Key:
[1] = Peptide stability in activated serum (AS); format: in vitro ADME, CD-1 mice; settings: 1 h
Procedure: (§1) All stability tests were performed at least in triplicates.

[2] = Stability and metabolites across fresh blood, serum and plasma (all six matrices); settings: for Overall stability / Sequential stability: fresh blood, serum, and plasma
Procedure: Aqueous peptide solutions (3 g/L) were filled in a sterile syringe (1 mL, Dispomed Witt oHG, Gelnhausen, Deutschland) through the front end, the stainless-steel needle was attached, and blood (200 to 300 μL) was collected via cardiac puncture to obtain a peptide concentration of approximately 31,5 μmol/L. The syringe was carefully disconnected from the needle and sealed while keeping the needle in the heart. A second empty syringe was attached to the needle and 0.5 to 0.8 mL blood were collected. In parallel, the sealed syringe was gently shaken for one minute to mix the peptide solution with blood and further incubated on a Stuart Rotator SB3 (Barloworld, Scientific LTD, Stone, Staffordshire, U.K.) placed in an incubator at 37°C. […] The plasma sample designated as “blood” (B) was precipitated with trichloroacetic acid (TCA), as described below. Blood collected in the second syringe was transferred to a polypropylene tube (Eppendorf AG, Hamburg, Germany) and a BD Microtainer® serum separator tube (SST; Becton, Dickinson and Company). Polypropylene tubes were centrifuged immediately (12,000 x g, 2 to 4 min) to obtain “direct serum” (DS) as supernatant, whereas the serum separator tubes were incubated (room temperature, 1 h), centrifuged (12,000 x g, 2 min), and collected as “activated serum” (AS). Pooled mouse serum was purchased from PAA Laboratories GmbH (Pasching, Austria) and pooled CD-1 mouse plasma containing K2EDTA or lithium heparin were obtained from Innovative Research (Novi, MI, USA).
Peptides were mixed with serum or plasma to a final concentration of 31.5 μmol/L and incubated (37°C, 750 rpm; Thermomixer, Eppendorf AG, Hamburg, Germany). Aliquots (20 or 40 μL) taken after 0 and 60 min (0, 10 and 30 min for Api88) were mixed with TCA to obtain a final concentration of 3% (w/v) and incubated on ice (10 min). After centrifugation (12,000 x g, 5 min), the supernatant was neutralized with sodium hydroxide (1 mol/L) and stored at −20°C. Samples were analyzed by RP-HPLC on a Jupiter C18-column (internal diameter: 2 mm, length: 150 mm, particle size: 5 μm, pore size: 30 nm) using a linear aqueous acetonitrile gradient containing TFA (0.1%, v/v) as ion pair reagent. Peptides were detected by recording the absorbance at 214 nm and quantified by their peak areas relative to the initial peak areas (0 min). All stability tests were performed at least in triplicates.
Metabolites were identified on an Agilent 1100 LC system (Agilent Technologies, Santa Clara, CA, USA) coupled on-line via a UV-detector (absorbance recorded at 214 nm) to the electrospray ionization source on an ion trap mass spectrometer (ESI-IT-MS, Esquire HCT, Bruker Daltonics GmbH, Bremen, Germany). Samples were separated on an Aqua C18-column (inner diameter: 2 mm, length: 150 mm, particle size: 3 μm, pore size: 12.5 nm, Phenomenex; column temperature: 60°C) at a flow rate of 0.2 mL/min using a linear gradient of aqueous acetonitrile in the presence of formic acid (FA; 0.1%, v/v) as ion pair reagent. […] The ESI-IT-MS was operated in positive ion mode. Ionization was carried out at 365°C (source temperature) using nitrogen as curtain gas (40 psi) and dry gas (9 L/min). Mass spectra were acquired for an m/z range from 400 to 1300 at a scan rate of 8100 m/z-units per second in standard enhanced mode.

[3] = Peptide stability in direct serum (DS); format: in vitro ADME, CD-1 mice; settings: 1 h
Procedure: as §1

[4] = Peptide stability in commercial serum (CS); format: in vitro ADME, mouse; settings: for prodrug expected to be present in full serum: extrapolated from 25% serum data assuming three-fold faster degradation in full serum
Procedure: as §1

[5] = set-up: method as in PMID 27067364; settings: 25% aqueous commercial serum; cited from earlier work
[6] = Peptide stability in fresh blood taken by cardiac puncture into a syringe containing the peptide (blood, B); format: in vitro ADME, CD-1 mice; settings: blood, 1 h
Procedure: as §1

[7] = Peptide stability in heparin plasma (HP); format: in vitro ADME, CD-1 mouse; settings: 1 h
Procedure: as §1

[8] = Peptide stability in EDTA plasma (EP); format: in vitro ADME, CD-1 mouse; settings: 1 h
Procedure: as §1

thrombin = tested on: thrombin; set-up: method as in PMID 18665823; settings: recalcified citrated plasma; cited from earlier work
human α-thrombin = biological target: T1, human α-thrombin (Homo sapiens, UniProt P00734); test: α-Thrombin stability assay; format: in vitro ADME; settings: cleavage C-terminal to Arg4; 0, 1, and 24 hours
T1 construct: with human α-Thrombin for 0, 1, and 24 hours
Procedure: Supplementary file pone.0178943.s003.tif: S3 Fig Stability of Api88, Api137, and LVPR-Onc112 against human α-thrombin. Chromatograms recorded after incubation of Api88 (a), Api137 (b), or LVPR-Onc112 (c) with human α-Thrombin for 0, 1, and 24 hours (UV absorbance). […] (TIF) Click here for additional data file.
S1 Text. Method α-Thrombin stability assay.

[9] = mouse serum; cited from earlier work
[10] = intravenous application in mice; cited from earlier work

With CC[C@H](C)[C@H](NC(=O)[C@@H](CCCNC(=N)N)NC(=O)[C@H](CCCNC(=N)N)NC(=O)[C@@H]1CCCN1C(=O)[C@@H]1CCCN1C(=O)[C@H](CCCNC(=N)N)NC(=O)[C@@H]1CCCN1C(=O)[C@H](CCCNC(=N)N)NC(=O)[C@@H]1CCCN1C(=O)[C@H](CC(C)C)NC(=O)[C@H](Cc1ccc(O)cc1)NC(=O)[C@@H]1CCCN1C(=O)[C@@H]1CCCN1C(=O)[C@H](CCCCN)NC(=O)[C@H](CC(=O)O)NC(=O)[C@@H](NC(=O)[C@H](CCCNC(=N)N)NC(=O)[C@H](Cc1ccc(O)cc1)NC(=O)[C@H](C)NC(=O)[C@H](C)N)C(C)C)C(=O)N[C@@H](Cc1ccc(O)cc1)C(=O)N[C@@H](CC(N)=O)C(=O)N[C@H](CCCNC(=N)N)C(N)=O [AAYR-Onc112, AAYRVDKPPYLPRPRPPRrIYNr-NH2] (H-AAYRVDKPPYLPRPRPPR[dR]IYN[dR]-NH2) the “Onc112 released relative to initial prodrug” value [1] was under 3%, the Overall stability [2] was “Low” and the Sequential stability [2] was “Blood = Plasma = Serum”. The “Onc112 released relative to initial prodrug” value [3] was under 3%, the “Onc112 released relative to initial prodrug” value ([4]; commercial serum, 1 h) was 13 ± 2% and the “prodrug expected to be present in full serum” value [4] was 5%. The “Onc112 released from linker peptide” value [5] was 85%, the “Onc112 released relative to initial prodrug” value [6] was under 3% and the “Onc112 released relative to initial prodrug” value [7] was 35 ± 4%. For the same molecule, the “Onc112 released relative to initial prodrug” value [8] was 40 ± 4%.

For O=C(O)CN(CCN(CC(=O)O)CC(=O)O)CC(=O)O [EDTA, ethylenediaminetetraacetic acid], the “thrombin reactivated in presence of the anticoagulant” value (thrombin) is given as 0.39 U/mL.

In the case of CC[C@H](C)[C@H](NC(=O)[C@@H](CCCNC(=N)N)NC(=O)[C@H](CCCNC(=N)N)NC(=O)[C@@H]1CCCN1C(=O)[C@@H]1CCCN1C(=O)[C@H](CCCNC(=N)N)NC(=O)[C@@H]1CCCN1C(=O)[C@H](CCCNC(=N)N)NC(=O)[C@@H]1CCCN1C(=O)[C@H](CC(C)C)NC(=O)[C@H](Cc1ccc(O)cc1)NC(=O)[C@@H]1CCCN1C(=O)[C@@H]1CCCN1C(=O)[C@H](CCCCN)NC(=O)[C@H](CC(=O)O)NC(=O)[C@@H](NC(=O)[C@H](CCCNC(=N)N)NC(=O)[C@@H]1CCCN1C(=O)[C@@H](NC(=O)[C@@H](N)CC(C)C)C(C)C)C(C)C)C(=O)N[C@@H](Cc1ccc(O)cc1)C(=O)N[C@@H](CC(N)=O)C(=O)N[C@H](CCCNC(=N)N)C(N)=O [LVPR-Onc112, LVPRVDKPPYLPRPRPPRrIYNr-NH2] (H-LVPRVDKPPYLPRPRPPR[dR]IYN[dR]-NH2), the “sum of prodrug and released Onc112 relative to initial amount” value ([2]; all matrices except for blood, 1 h) is reported as about 100%, the Overall stability [2] is reported as “Low” and the Sequential stability [2] is reported as “Blood > Serum > Plasma”. The “prodrug expected to be present in full serum” value [4] was 14%, the “Onc112 released from linker peptide” value [5] was 57% and the remaining at 1 h ([6]; CD-1, mouse, fresh whole blood, 37°C, 31.5 μmol/L, read-out: intact peptide remaining relative to time zero) was 67 ± 4%. For the same molecule, the “sum of prodrug and released Onc112 relative to initial amount” value [6] was 85% and the “hydrolysis by thrombin compared with Api88” value (human α-thrombin) was “slower”.

In the case of CC[C@H](C)[C@H](NC(=O)[C@@H](CCCNC(=N)N)NC(=O)[C@H](CCCNC(=N)N)NC(=O)[C@@H]1CCCN1C(=O)[C@@H]1CCCN1C(=O)[C@H](CCCNC(=N)N)NC(=O)[C@@H]1CCCN1C(=O)[C@H](CCCNC(=N)N)NC(=O)[C@@H]1CCCN1C(=O)[C@H](CC(C)C)NC(=O)[C@H](Cc1ccc(O)cc1)NC(=O)[C@@H]1CCCN1C(=O)[C@@H]1CCCN1C(=O)[C@H](CCCCN)NC(=O)[C@H](CC(=O)O)NC(=O)[C@@H](N)C(C)C)C(=O)N[C@@H](Cc1ccc(O)cc1)C(=O)N[C@@H](CC(N)=O)C(=O)N[C@H](CCCNC(=N)N)C(N)=O [Onc112, VDKPPYLPRPRPPRrIYNr-NH2] (H-VDKPPYLPRPRPPR[dR]IYN[dR]-NH2), the “intact peptide remaining relative to time zero” value ([1]; 37°C, 31.5 μmol/L) is given as “at least 96%”, the serum half-life time [9] is given as “more than 8 h” and the “Matrix in which the metabolite was identified” value ([2]; LC-MS, peak area at least 1% of initially incubated peptide, B blood, DS direct serum, AS activated serum, CS commercial serum, EP EDTA plasma, HP heparin plasma, All = all six) is given as “All”. For the same molecule, the Overall stability [2] was “High”, the Sequential stability [2] was “Blood = Plasma = Serum” and the “intact peptide remaining relative to time zero” value ([3]; 37°C, 31.5 μmol/L) was “at least 96%”. The metabolised at 1 h, 31.5 μmol/L ([4]; mouse, commercial pooled serum, commercial serum, 1 hour, read-out: peptide degraded) was under 2%, the “plasma levels relative to Onc72” value [10] was “around fivefold” and the “intact peptide remaining relative to time zero” value ([6]; 37°C, 31.5 μmol/L) was “at least 96%”. The “intact peptide remaining relative to time zero” value ([7]; 37°C, 31.5 μmol/L) was “at least 96%” and the “intact peptide remaining relative to time zero” value ([8]; 37°C, 31.5 μmol/L) was “at least 96%”.

For heparin, the “thrombin reactivated in presence of the anticoagulant” value (thrombin) is listed as 0.06 U/mL.

Source: publication PMC5456363 (PLoS ONE, 2017)
